Assay results from patent US20140045806A1 (priority 2012, published 2014).
Read-outs that look alike come from different tables or passages of the source. Marks after values point to notes of the source that are not given here.

Tests used:
postmenopausal women = test: ERC-210 phase III trial, MENQOL questionnaire (sexual domain and summary score); format: in vivo; conditions: for MENQOL sexual domain, average percentage of change from baseline, percentages of the three DHEA doses combined: 12 weeks; for MENQOL Avoiding intimacy, average % change from baseline to Week 12 in severity score over placebo / MENQOL Sexual desire, average % change from baseline to Week 12 in severity score over placebo / MENQOL Vaginal dryness at sexual activity, average % change from baseline to Week 12 in severity score over placebo: average of the 3 DHEA doses
Description: The example below is intended only to illustrate a particular embodiment of the present invention and is not meant to limit the scope of the invention in any manner. This study (ERC-210) is a phase III, prospective, multicentre, randomized, placebo-controlled, and double-blind trial. […] The DHEA ovules or suppositories (Vaginorm™) containing prasterone in a lipophilic base were manufactured by Recipharm, Karlskoga, Sweden. The study was divided into two phases, namely screening followed by a treatment period of 12 weeks. The protocol was approved by the Institutional Review Board of the Centre Hospitalier de I'Université Laval (Quebec City, Canada), McGill University (Montreal, Canada), Ethica (Montreal, Canada), Eastern Virginia Medical School (Norfolk, Va., USA) and the Western Institutional Review Board (Los Angeles, USA).
The inclusion and exclusion criteria were as described in (Labrie, Archer et al. 2009b). A written informed consent was obtained from all subjects prior to the performance of any study-related procedure. […] A partial gynecological examination was performed to evaluate the aspect of the mucosa and tolerance to the medication on day 1 and at all visits. The standard laboratory tests, namely hematology (including complete blood count and coagulation), blood chemistry and urinalysis were performed at screening, day 1 and at all visits. Summary tabulations were prepared displaying the number of observations, mean or geometric mean as appropriate, SD; SEM, 95% two-sided CI; median, minimum, and maximum for continuous variables; and the number and percentage per category for categorical data. Statistical analyses were performed at the two-sided significance level of 0.05 unless otherwise stated. […] The endpoints for analysis consisted of the following: desire/interest, arousal and orgasm were self-rated by the women at screening, at day 1, and at week 4, 8 and 12 using the ASF and MENQOL questionnaires. Baseline was defined as the value on day 1, obtained before first use of the study treatment, and change from baseline to week 12 was calculated for each participant for each domain endpoint. The analysis comparing each dose of DHEA to placebo was performed by analysis of covariance, with the baseline value used as the covariate. Missing values were replaced by the last observation made.
The three questions covered by the sexual domain of the MENQOL questionnaire are change in sexual desire, intimacy avoidance and vaginal dryness during sexual activity. In our previous publication (Labrie, Archer et al. 2009a), only women having a score value at baseline and week 12 were used in the calculations while the present evaluation carries forward the last value obtained after baseline when data at week 12 are missing. […] Since the number of women is as low as 12 in some groups for some parameters after the distribution is made between women with and without MS, the calculations have also been performed with the combination of the three prasterone doses, although the number of women remains low in the corresponding placebo group.

vaginal nerve fibers = conditions: rat, lamina propria and muscularis, cited from earlier work
[1] = 0.25% DHEA intravaginal daily 12 weeks, MS pain at sexual activity at baseline
[2] = 0.5% DHEA intravaginal daily 12 weeks, MS pain at sexual activity at baseline
[3] = 0.5% DHEA intravaginal daily 12 weeks, all subjects (ITT)
[4] = 1.0% DHEA intravaginal daily 12 weeks, no MS pain at sexual activity at baseline
[5] = Pool 3 Doses DHEA intravaginal daily 12 weeks, MS pain at sexual activity at baseline
[6] = Pool 3 Doses DHEA intravaginal daily 12 weeks, MS pain at sexual activity at baseline, listed as prasterone
[7] = Pool 3 Doses DHEA intravaginal daily 12 weeks, all subjects (ITT)
[8] = Pool 3 Doses DHEA intravaginal daily 12 weeks, all subjects (ITT), listed as prasterone
[9] = Pool 3 Doses DHEA intravaginal daily 12 weeks, no MS pain at sexual activity at baseline
[10] = Pool 3 Doses DHEA intravaginal daily 12 weeks, no MS pain at sexual activity at baseline, listed as prasterone

In the case of C[C@]12CC[C@H](O)CC1=CC[C@@H]1[C@@H]2CC[C@]2(C)C(=O)CC[C@@H]12 [DHEA, (3β)-3-Hydroxyandrost-5-en-17-one], the “MENQOL Avoiding intimacy (Q 29) severity score, average % change from baseline to Week 12 (decreased from baseline)” value (postmenopausal women; [1]) is reported as 41%, the “MENQOL SUMMARY SCORE of the four domains, average % change from baseline to Week 12 (decreased from baseline)” value (postmenopausal women; [1]) is reported as 24%** and the “MENQOL Sexual desire (Q 27) severity score, average % change from baseline to Week 12 (decreased from baseline)” value (postmenopausal women; [1]) is reported as 48%. The “MENQOL Vaginal dryness during intercourse (Q28) severity score, average % change from baseline to Week 12 (decreased from baseline)” value (postmenopausal women; [1]) was 45%, the “MENQOL SUMMARY SCORE of the four domains, average % change from baseline to Week 12 (decreased from baseline)” value (postmenopausal women; 0.25% DHEA intravaginal daily 12 weeks, all subjects (ITT)) was 24%** and the “MENQOL SUMMARY SCORE of the four domains, average % change from baseline to Week 12 (decreased from baseline)” value (postmenopausal women; 0.25% DHEA intravaginal daily 12 weeks, no MS pain at sexual activity at baseline) was 25%*. The “MENQOL Avoiding intimacy (Q 29) severity score, average % change from baseline to Week 12 (decreased from baseline)” value (postmenopausal women; [2]) was 43%, the “MENQOL SUMMARY SCORE of the four domains, average % change from baseline to Week 12 (decreased from baseline)” value (postmenopausal women; [2]) was 19% and the “MENQOL Sexual desire (Q 27) severity score, average % change from baseline to Week 12 (decreased from baseline)” value (postmenopausal women; [2]) was 36%. The “MENQOL SUMMARY SCORE of the four domains, average % change from baseline to Week 12 (decreased from baseline)” value (postmenopausal women; [3]) was 18%, the “MENQOL Sexual desire (Q 27) severity score, average % change from baseline to Week 12 (decreased from baseline)” value (postmenopausal women; [3]) was 31% and the “MENQOL SUMMARY SCORE of the four domains, average % change from baseline to Week 12 (decreased from baseline)” value (postmenopausal women; 0.5% DHEA intravaginal daily 12 weeks, no MS pain at sexual activity at baseline) was 12%. For the same molecule, the “MENQOL SUMMARY SCORE of the four domains, average % change from baseline to Week 12 (decreased from baseline)” value (postmenopausal women; 1.0% DHEA intravaginal daily 12 weeks, MS pain at sexual activity at baseline) was 22%*, the “MENQOL SUMMARY SCORE of the four domains, average % change from baseline to Week 12 (decreased from baseline)” value (postmenopausal women; 1.0% DHEA intravaginal daily 12 weeks, all subjects (ITT)) was 20%* and the “MENQOL Avoiding intimacy (Q 29) severity score, average % change from baseline to Week 12 (decreased from baseline)” value (postmenopausal women; [4]) was 27%. For the same molecule, the “MENQOL SUMMARY SCORE of the four domains, average % change from baseline to Week 12 (decreased from baseline)” value (postmenopausal women; [4]) was 14%, the “MENQOL Sexual desire (Q 27) severity score, average % change from baseline to Week 12 (decreased from baseline)” value (postmenopausal women; [4]) was 35% and the “Changes over placebo, sum of the three questions of the MENQOL sexual function domain” value (postmenopausal women; MS pain group) was 62.8%. The “Specific (above placebo) effect in MENQOL, global increase over placebo” value (postmenopausal women; MS pain group) was 0.78 fold, the “MENQOL sexual domain, average percentage of change from baseline, percentages of the three DHEA doses combined” value (postmenopausal women; MS pain group) was 49.0% and the “MENQOL Avoiding intimacy (Q 29) severity score, average % change from baseline to Week 12 (decreased from baseline)” value (postmenopausal women; [5]) was 46.4%*. The “MENQOL SUMMARY SCORE of the four domains, average % change from baseline to Week 12 (decreased from baseline)” value (postmenopausal women; [5]) was 21.4%*, the “MENQOL Sexual desire (Q 27) severity score, average % change from baseline to Week 12 (decreased from baseline)” value (postmenopausal women; [5]) was 45.0% and the “MENQOL Sexual domain severity score, average % change from baseline to Week 12 (decreased from baseline)” value (postmenopausal women; [5]) was 48.4%**. The “MENQOL Vaginal dryness during intercourse (Q28) severity score, average % change from baseline to Week 12 (decreased from baseline)” value (postmenopausal women; [5]) was 52.4%**, the “MENQOL Avoiding intimacy (Q 29) severity score, average % change from baseline to Week 12 (decreased from baseline)” value (postmenopausal women; [6]) was 46.4% and the “MENQOL SUMMARY SCORE of the four domains, average % change from baseline to Week 12 (decreased from baseline)” value (postmenopausal women; [6]) was 21.4%. For the same molecule, the “MENQOL Sexual desire (Q 27) severity score, average % change from baseline to Week 12 (decreased from baseline)” value (postmenopausal women; [6]) was 45%, the “MENQOL Sexual domain severity score, average % change from baseline to Week 12 (decreased from baseline)” value (postmenopausal women; [6]) was 48.4% and the “MENQOL Vaginal dryness during intercourse (Q28) severity score, average % change from baseline to Week 12 (decreased from baseline)” value (postmenopausal women; [6]) was 52.4%. For the same molecule, the “MENQOL Avoiding intimacy (Q 29) severity score, average % change from baseline to Week 12 (decreased from baseline)” value (postmenopausal women; [7]) was 44.8%**, the “MENQOL SUMMARY SCORE of the four domains, average % change from baseline to Week 12 (decreased from baseline)” value (postmenopausal women; [7]) was 20.8%** and the “MENQOL Sexual desire (Q 27) severity score, average % change from baseline to Week 12 (decreased from baseline)” value (postmenopausal women; [7]) was 44.0%**. The “MENQOL Sexual domain severity score, average % change from baseline to Week 12 (decreased from baseline)” value (postmenopausal women; [7]) was 46.7%**, the “MENQOL Vaginal dryness during intercourse (Q28) severity score, average % change from baseline to Week 12 (decreased from baseline)” value (postmenopausal women; [7]) was 49.9%** and the “MENQOL Avoiding intimacy (Q 29) severity score, average % change from baseline to Week 12 (decreased from baseline)” value (postmenopausal women; [8]) was 44.8%. For the same molecule, the “MENQOL SUMMARY SCORE of the four domains, average % change from baseline to Week 12 (decreased from baseline)” value (postmenopausal women; [8]) was 20.8%, the “MENQOL Sexual desire (Q 27) severity score, average % change from baseline to Week 12 (decreased from baseline)” value (postmenopausal women; [8]) was 44% and the “MENQOL Sexual domain severity score, average % change from baseline to Week 12 (decreased from baseline)” value (postmenopausal women; [8]) was 46.7%. The “MENQOL Vaginal dryness during intercourse (Q28) severity score, average % change from baseline to Week 12 (decreased from baseline)” value (postmenopausal women; [8]) was 49.9%, the “MENQOL Avoiding intimacy (Q 29) severity score, average % change from baseline to Week 12 (decreased from baseline)” value (postmenopausal women; [9]) was 36.6%* and the “MENQOL SUMMARY SCORE of the four domains, average % change from baseline to Week 12 (decreased from baseline)” value (postmenopausal women; [9]) was 18.0%*. The “MENQOL Sexual desire (Q 27) severity score, average % change from baseline to Week 12 (decreased from baseline)” value (postmenopausal women; [9]) was 40.2%**, the “MENQOL Sexual domain severity score, average % change from baseline to Week 12 (decreased from baseline)” value (postmenopausal women; [9]) was 39.2%** and the “MENQOL Vaginal dryness during intercourse (Q28) severity score, average % change from baseline to Week 12 (decreased from baseline)” value (postmenopausal women; [9]) was 38.2%**. The “MENQOL Avoiding intimacy (Q 29) severity score, average % change from baseline to Week 12 (decreased from baseline)” value (postmenopausal women; [10]) was 36.6%, the “MENQOL SUMMARY SCORE of the four domains, average % change from baseline to Week 12 (decreased from baseline)” value (postmenopausal women; [10]) was 18% and the “MENQOL Sexual desire (Q 27) severity score, average % change from baseline to Week 12 (decreased from baseline)” value (postmenopausal women; [10]) was 40.2%. The “MENQOL Sexual domain severity score, average % change from baseline to Week 12 (decreased from baseline)” value (postmenopausal women; [10]) was 39.2%, the “MENQOL Vaginal dryness during intercourse (Q28) severity score, average % change from baseline to Week 12 (decreased from baseline)” value (postmenopausal women; [10]) was 38.2% and the “MENQOL Avoiding intimacy, average % change from baseline to Week 12 in severity score over placebo” value (postmenopausal women; MS PAIN at baseline) was 21.4%*. For the same molecule, the “MENQOL Sexual desire, average % change from baseline to Week 12 in severity score over placebo” value (“MENQOL Sexual desire, average % change” for short) (postmenopausal women; MS PAIN at baseline) was 18.0%, the “MENQOL Vaginal dryness at sexual activity, average % change from baseline to Week 12 in severity score over placebo” value (postmenopausal women; MS PAIN at baseline) was 23.4%** and the “MENQOL Avoiding intimacy, average % change from baseline to Week 12 in severity score over placebo” value (postmenopausal women; NO MS PAIN at baseline) was 27.4%*. For the same molecule, the “MENQOL Sexual desire, average % change” value (postmenopausal women; NO MS PAIN at baseline) was 34.1%**, the “MENQOL Vaginal dryness at sexual activity, average % change from baseline to Week 12 in severity score over placebo” value (postmenopausal women; NO MS PAIN at baseline) was 38.2%** and the “MENQOL Avoiding intimacy, average % change from baseline to Week 12 in severity score over placebo” value (postmenopausal women; TOTAL (all women)) was 22.8%**. For the same molecule, the “MENQOL Sexual desire, average % change” value (postmenopausal women; TOTAL (all women)) was 22.0%**, the “MENQOL Vaginal dryness at sexual activity, average % change from baseline to Week 12 in severity score over placebo” value (postmenopausal women; TOTAL (all women)) was 26.9%** and the “Changes over placebo, sum of the three questions of the MENQOL sexual function domain” value (postmenopausal women; no MS pain group) was 99.7%. For the same molecule, the “Specific (above placebo) effect in MENQOL, global increase over placebo” value (postmenopausal women; non MS pain group) was 5.5 fold, the “MENQOL sexual domain, average percentage of change from baseline, percentages of the three DHEA doses combined” value (postmenopausal women; non MS pain group) was 33.3% and the “Higher specificity of correction of sexual dysfunction (over placebo), MENQOL” value (postmenopausal women; women with no MS pain versus MS pain at baseline) was 6.8 fold. For the same molecule, the “Density of vaginal nerve fibers” value (vaginal nerve fibers) was “increases the density of nerve fibers” and the “Density of vaginal nerve fibers” value (vaginal nerve fibers; listed as prasterone) was “stimulatory effect”.
